What was measured:
[1] = system: C6 cells (lower chamber; HUVEC and astrocytes barrier)
Description: Then, a peptide labeled with a fluorescent label was introduced into the upper chamber and co-incubation was carried out for 12, 24 and 36 hours. At the end of the incubation, the tumor cells were washed with cold phosphate-buffered saline (PBS) and fixed with a 4% solution of paraformaldehyde in PBS. Nuclei were stained with 4’,6-diamidino-2-phenylindole (DAPI). Fluorescent images were obtained using a Leica TCS SP8 confocal microscope (Leica, Germany). To avoid possible cross-interference of different fluorochromes, images for DAPI and FITC were obtained using a sequential sample scanning method. Fluorescently labeled cells were counted in the lower chamber. To estimate the mHsp70-mediated uptake of chaperone-targeted peptides tumor cells prior to incubation were pre-treated with anti-Hsp70 monoclonal antibodies SPA-810 (1:250, Stressgen) and SPA-815 (1:250 Stressgen). To exclude integrin (αvβ3, αvβ5)-mediated penetration of RAS70 tumor cells prior to incubation with peptides were pre-treated with anti- αvβ3 (1:200 clone LM609, ZMS1030, Sigma-Aldrich, USA), -αvβ5 (1:200 clone P1F6, MAB1961Z, Sigma-Aldrich, USA) monoclonal antibodies.
Then, a peptide labeled with a fluorescent dye (FITC) was introduced into the upper chamber and co-incubation was carried out for 12, 24 and 36 hours. At the end of the incubation, the tumor cells were washed with cold phosphate-buffered saline (PBS) and fixed with a 4% solution of paraformaldehyde in PBS. Nuclei were stained with 4’,6-diamidino-2-phenylindole (DAPI).
Data from 3 independent experiments are presented as M ± SE. […] Data from 3 independent experiments are presented as M ± SE. ** p < 0.01 for testing mean expression levels.

[2] = system: normal brain tissues; assay: Ex vivo staining of normal brain tissue from patients with epilepsy; parameters: species or system human; details: tissues obtained intraoperatively from patients with epilepsy (n=2)
Description: For evaluation of targeting properties of RAS70 peptide in the non-tumorous brain tissues patient-derived samples obtained intraoperatively from patients with drug-resistant epilepsy underwent temporal resection (n=2) were employed.
Small pieces of brain tissue (50-100 mm³) were taken from patients or animals during surgery. The resulting material was washed three times in a PBS solution at room temperature and then stained, gently shaking, for 1 hour with one of the following combinations of dyes: a mixture of Hoechst 33342 (0.1 μg/mL) [Invitrogen, USA], monoclonal antibodies against Hsp70 conjugated with FITC, and RAS70 conjugated with Cy5; a mixture of Hoechst 33342 (0.1 μg/mL), LumiTracker® Mito Green FM [Lumiprobe, Russia], and TKD/NGL-RGD/RAS70 conjugated with sCy5. […] Hoechst 33342 fluorescence was excited with a 405 nm laser and recorded in the range 410 to 550 nm; Hsp70-FITC and Mito Green fluorescence were excited with a 488 nm laser and recorded in the range 495 to 550 nm; and Cy5 fluorescence was excited with a 633 nm laser and recorded in the range 635 to 750 nm. […]
(§1) To detect peptide localization, the biopsy material was additionally stained with a mitochondrial marker MitoGreen and anti-Hsp70 antibodies (SPA-810). […] Additionally, we assessed the depth of the RAS70-sCy3/sCy5 penetration into the tumor tissues […]. […]

[3] = system: mHsp70-negative dermal fibroblasts; assay: Flow cytometry of FITC-labeled peptide internalization, negative control cells; type: cell-based
[4] = system: high-grade glioma biopsy material; assay: Ex vivo topical application on patient brain tumor specimens, confocal/fluorescent microscopy; parameters: species or system human
From the text: To study RAS70 peptide accumulation in the brain tumors the latter were obtained from neuro-oncological patients. Intraoperative biopsy material obtained from adult (n=6) and pediatric (n=2) patients with radiological diagnosis of high-grade gliomas without previous radiation therapy and chemotherapy. The patients underwent microsurgical interventions between February 2024 and July 2024 ( Table 1 ). The study protocol was approved by the Ethics Committee of the Almazov Medical Research Centre (approval No. 2712-20, December 21, 2020).
To evaluate local accumulation of the fluorescently-labeled peptides the latter were sprayed over the freshly dissected brain tumor specimens as follows (1): control group – PBS (50 μL) (2); NGL-sCy7.5 peptide (50 μl, at concentration of 100 μg) (3); NGL-RGD-sCy7.5 peptide (50 μl, at concentration of 100 μg) (4); TKD-sCy7.5 peptide (50 μl, at concentration of 100 μg) (5); […] peptide (50 μl, at concentration of 100 μg). […]
Small pieces of brain tissue (50-100 mm³) were taken from patients or animals during surgery. […] Hoechst 33342 fluorescence was excited with a 405 nm laser and recorded in the range 410 to 550 nm; Hsp70-FITC and Mito Green fluorescence were excited with a 488 nm laser and recorded in the range 495 to 550 nm; and Cy5 fluorescence was excited with a 633 nm laser and recorded in the range 635 to 750 nm. […]
To study the target properties of the peptide RAS70 ex vivo, biopsy material was obtained from adult (n=6) and pediatric (n=2) neurooncological patients ( Table 1 ). […] Subsequently, tumor was co-incubated with peptide at a concentration of 1 mg/mL for 5–10 minutes, after which the tissue sample was washed with a PBS solution and analyzed by live-cell inverted confocal microscopy ( Figures 11A–C ).
as §1

[5] = system: C6, GL261, T98G mHsp70-positive tumor cells; assay: Confocal microscopy of peptide binding and internalization; type: cell-based; details: for internalization/accumulation in tumor cells by confocal microscopy: 75 μg/mL, co-incubation 15, 30 and 60 minutes
Description: The binding of the TKD-sCy5, RAS70-sCy5, and NGL-RGD-sCy5 peptides to tumor cells was visualized using the Olympus FV3000 confocal system (Olympus, Japan). The C6, GL261, T98G, ANI, IBD, TMS cells (0.1×10^6 mL^-1 cells) were placed on Nunc™ Lab-Tek™ Chamber Slide System (Thermo Fisher Scientific, USA) and kept overnight. For primary GBM cells the chambers were pre-coated with Matrigel (0.2 mg/mL, Corning, New York, USA) to increase adhesion properties. The cells were incubated with peptides at a concentration of 75 μg/mL for 15, 30, and 60 minutes on ice in the dark. After the incubation cells were washed with PBS, fixed in a 10% formalin solution (Sigma-Aldrich, Burlington, USA), and mounted using a mounting medium containing DAPI (Ibidi, Graefelfing, Germany). Unstained cells were used as controls.
To study the mechanisms of peptide internalization, cells were incubated with peptides for 30 minutes in 37°C in a 5% CO2, washed with PBS, fixed in a 10% formalin solution (Sigma-Aldrich, USA), permeabilized with 0,1% Triton-X100 solution (Servicebio, Wuhan, China), blocked with 5% bovine serum albumin solution and incubated overnight with Alexa Fluor® 488 Anti-Rab5 antibody [EPR21801] (#ab270094, abcam, USA), and with Alexa Fluor® 488 Anti-LAMP1 antibody [EPR24395-31] (#281758, abcam, USA). After 24 hours cells were washed with 0,1% Tween-20 solution (Sigma-Aldrich, Burlington, USA) and mounted using a mounting medium containing DAPI (Ibidi, Graefelfing, Germany). To study the co-localization of the peptide with endolysosomal markers the raw confocal images (n = 10 for each group) were obtained in a 3-channel, 1024 × 1024 pixel format. Colocalization coefficient (τ-Kendall rank correlation value) was computed with the Coloc2 plugin and ImageJ 1.54g ([32]).
The next step was co-incubation of the target peptide RAS70 labeled with fluorescent dye Cy5 with tumor cells for 15, 30 and 60 minutes, followed by confocal microscopy analysis. […] To exclude processes of active internalization of the peptide, co-incubation of the cells on ice at +4°C was performed. […] Next, we evaluated the targeting properties of RAS70 on primary glioblastoma cells (ANI, IBD, TMS) obtained from neuro-oncological patients ([3]) that were additionally characterized for mHsp70, SOX2, NESTIN, GFAP, β3-Tubulin, Ki-67, and CD133 ( Figures 3A–I ).

| Structure (SMILES) | fluorescently labeled tumor cells in the lower chamber [1] | localization in normal brain tissue [2] | accumulation of peptide in mHsp70-negative cells [3] | accumulation in patient brain tumor samples ([4]; 1 mg/mL, 5–10 minutes, live-cell inverted confocal microscopy, adult (n=6) and pediatric (n=2) patients) | depth of the peptide penetration into the tumor tissues ([4]; RAS70-sCy3/sCy5 topically applied on patient tumor samples, histological sections, fluorescent microscopy) | retention in necrotic tumor areas ([4]; patient tumor samples, confocal microscopy) | co-localization with early endosome (Rab5) and lysosome (LAMP-1) markers ([5]; 30 minutes at 37°C, confocal microscopy) | internalization/accumulation in tumor cells by confocal microscopy ([5]; Cy5-labeled peptide) | subcellular localization ([5]; Cy5-labeled peptide, confocal microscopy) | penetration into cells on ice ([5]; co-incubation on ice at +4°C to exclude active internalization, data not shown) |
| --- | --- | --- | --- | --- | --- | --- | --- | --- | --- | --- |
| CC(C)C[C@H](NC(=O)[C@H](CC(C)C)NC(=O)[C@H](CC(N)=O)NC(=O)[C@H](CC(N)=O)NC(=O)[C@H](CC(=O)O)NC(=O)[C@H](CCCCN)NC(=O)[C@@H](N)[C@@H](C)O)C(=O)NCC(=O)N[C@@H](CCCNC(=N)N)C(=O)N[C@@H](Cc1ccccc1)C(=O)N[C@@H](CCC(=O)O)C(=O)N[C@@H](CC(C)C)C(=O)N[C@@H](CO)C(=O)NCC(=O)NCCC(=O)N[C@@H](CCCNC(=N)N)C(=O)NCC(=O)N[C@@H](CC(=O)O)C(=O)O [RAS70] | 567 ± 72 cells | no tissue-specific localization of RAS70 was detected | did not detect the accumulation | noted in all analyzed samples | 3.0 ± 0.87 mm | non-specific retention of the peptide | only partially penetrated the cell via the endolysosomal pathway | higher accumulation of the peptide was detected as compared to TKD or control | predominantly localized in the cytoplasm of cells without penetrating into the nuclei | significant decrease in the penetration |
| CC(C)C[C@H](NC(=O)[C@H](CC(C)C)NC(=O)[C@H](CC(N)=O)NC(=O)[C@H](CC(N)=O)NC(=O)[C@H](CC(=O)O)NC(=O)[C@H](CCCCN)NC(=O)[C@@H](N)[C@@H](C)O)C(=O)NCC(=O)N[C@@H](CCCNC(=N)N)C(=O)N[C@@H](Cc1ccccc1)C(=O)N[C@@H](CCC(=O)O)C(=O)N[C@@H](CC(C)C)C(=O)N[C@@H](CO)C(=O)NCC(=O)O [TKD] |  |  | did not detect the accumulation |  |  |  |  | internalization of the TKD peptide by tumor cells was noted, reaching maximum absorption of the peptide after 60 minutes |  |  |

Reference: publication PMC11973282, “RAS70 peptide targets multiforme glioblastoma by binding to the plasma membrane heat shock protein HSP70” (Frontiers in Oncology, 2025)
